“And” between values parts separate entries of the source, which are not always exact repeats. Identical values can stand only once.
Assays:
[1] = test system: NF-κB; assay: NF-κB-SEAP reporter assay in RAW-Blue cells after LPS; format: cell-based; conditions: for NFkB OD: then 200 ng/mL LPS 6 h
Description: NF-κB inhibition was assayed using the NF-κB-SEAP reporter cell line, RAW-Blue (InvivoGen, raw-sp). Cells were plated in round-bottom 96-well plates at 100,000 cells per well and cocultured with different concentrations of either NaBut or SerBut (0.15–12 mM) for 24 hours. After the addition of butyrate, cells were rinsed with phosphate buffered saline (PBS) and then stimulated with 200 ng/mL LPS in media for 6 hours.

[2] = Biodistribution of free butyrate in intestinal tissue and contents, C57BL/6 mice; format: in vivo
From the text: NaBut is limited in its translation by butyrate’s rapid consumption by colonocytes as a primary energy source in the distal gut. We propose that the enhanced biodistribution of free, active butyrate (following cleavage from serine) in SerBut-treated mice is due to small intestinal escape from the gut via amino acid transporters. To probe this hypothesis, we repeated the experiment and analyzed the biodistribution of free active butyrate in distinct sections of the intestinal tissue and the intestinal contents (Figure 2, K and L, and Supplemental Figure 2). Because neither ApoE^–/– nor HFD feeding would be expected to change amino acid receptor expression or function in the intestine, this was performed in C57BL/6 mice on a normal diet. […] We saw no increase in butyrate in the colon tissue (Figure 2P).
Samples were prepared and derivatized as described previously ([28]). […] The internal standard, 4-methylvaleric acid, was added.
Injection volume: 5.0 μL. Flow rate: 0.5 mL/min.

[3] = test system: ApoE^–/– mice on an HFD; assay: Oil Red O staining of aortic root plaque; format: in vivo, mouse; design: ORO Quantification ORO+ Heart: unit not given here; conditions: for ORO Quantification ORO+ Heart: individual mice, experiments 1 and 2
Description: (§1) For 6 weeks, mice were freely administered water, water containing 150 mM SerBut, or water containing an equimolar amount of NaBut. SerBut water was pH adjusted using 10 M NaOH to a final pH of 7.4. […] In concert, mice were fed an HFD with 42% from fat and 0.2% total cholesterol (Envigo, TD-88137) ad libitum. After 6 weeks, mice were euthanized. The lMLNs, ILNs, spleen, heart, and aorta were harvested and processed for flow cytometry analysis ([67]). The liver was harvested and part was homogenized in tissue protein extraction reagent buffer (Invitrogen, 78510) supplemented with protease inhibitor mini tablets (Thermo Fisher Scientific, PIA32955) for Western blotting and qPCR. The remaining liver was fixed with 4% paraformaldehyde and embedded in paraffin for histological analysis.
Hearts were fixed in 4% paraformaldehyde for 24 hours and cryopreserved with sucrose (15% sucrose for 24 hours, 30% sucrose for 24 hours, 1:1 30% sucrose and OCT) before being embedded in OCT (Thermo Fisher Scientific). Frozen embedded samples were sectioned at 8 μm until all 3 leaflets were visible. Aortic root sections were brought to room temperature and rehydrated with PBS. Staining solution was freshly prepared by mixing 3:2 Oil Red O (0.5% in isopropanol, Sigma Aldrich) to water. The solution was filtered through a 0.22 μm PES syringe filter (Millipore) and pipetted onto sections. After 15 minutes in a sealed dark chamber, sections were washed 3 times with water and imaged. Images were analyzed using QuPath (v0.5.0) (https://qupath.github.io). Each leaflet was circled broadly to include the plaque and then subsequently trained on the QuPath pixel classifier using the software’s artificial neural network. Training images were then tested and validated to identify the plaques to calculate their area and exclude non-plaque structures in the image. Plaque sizes were subsequently averaged and used to determine percentage Oil Red O–positive plaque area in the leaflet.

[4] = test system: ApoE^–/– mice on an HFD; assay: CD68 immunohistochemistry and Stary plaque severity grading; format: in vivo, mouse; design: STARY Score Average: scale not given here; conditions: for STARY Score Average: average per mouse, experiments 1 and 2, grades per the 1st table; for CD68+ IHC Quantification CD68 % Lesion / CD68+ IHC Quantification CD68+ (um2) / CD68+ IHC Quantification Intima % Lesion / CD68+ IHC Quantification Intima (um2) / CD68+ IHC Quantification Necrotic Core % Lesion / CD68+ IHC Quantification Necrotic Core (um2): individual mice
Description: as §1
Frozen aortic root sections were fixed in Zamboni fixative for 10 minutes. After TBS wash, slides were loaded on Leica Bond RX automated stainer. Anti–mouse CD68 antibody (BioLegend, catalog 137001, clone FA-11; 1:4000) was applied to tissue sections for 60 minutes of incubation at room temperature. Following TBS wash, tissue sections were incubated with rabbit anti-rat IgG (Thermo Fisher Scientific, 31219) 30 minutes. The antigen-antibody binding was detected using Polymer-HRP (Leica Biosystems, Bond Polymer Refine Detection kit, DS9800). The slides were coverglassed by autocoverslipper (Tissue-Tek Glas g2). Stary plaque severity grading was done as previously described ([42]). Briefly, each individual mouse was scored if there were at least 2 sections showing all 3 leaflets of the aortic valve that could reasonably be scored. Each leaflet was scored individually per aortic valve and subsequently averaged per section. All sections were averaged per mouse for a final score. Sections were graded blinded. Table 1 explains the scoring scale. Quantitative analysis of plaque features was performed using a classifier in QuPath (v.05.0).

[5] = test system: LDL-R; assay: Western blot of LDL-R in liver; format: in vivo, mouse; conditions: for LDL-R protein levels in liver: 6 weeks; for LDL-R Relative Expression: western Blot quantifiation, individual mice
From the text: SerBut water was pH adjusted using 10 M NaOH to a final pH of 7.4. […] After 6 weeks, mice were euthanized. […] The liver was harvested and part was homogenized in tissue protein extraction reagent buffer (Invitrogen, 78510) supplemented with protease inhibitor mini tablets (Thermo Fisher Scientific, PIA32955) for Western blotting and qPCR.

[6] = C57BL/6, normal chow, 3 hr after single gavage

Row | SMILES | NFkB OD ([1]; 1.3 mM 24 h) | NFkB OD ([1]; 4 mM 24 h) | free butyrate, Lower SI Contents [2, 6] | ORO Quantification ORO+ Heart [3] | STARY Score Average [4] | CD68+ IHC Quantification CD68 % Lesion [4] | CD68+ IHC Quantification CD68+ (um2) [4] | CD68+ IHC Quantification Intima % Lesion [4] | CD68+ IHC Quantification Intima (um2) [4] | CD68+ IHC Quantification Necrotic Core % Lesion [4] | CD68+ IHC Quantification Necrotic Core (um2) [4] | LDL-R protein levels in liver [5] | LDL-R Relative Expression [5] | other results
1 | CCCC(=O)[O-].[Na+] [NaBut, sodium butyrate, reference compound] | 0.118 and 0.109 and 0.114 and 0.106 and 0.112 and 0.117 | 0.077 and 0.086 and 0.085 and 0.074 and 0.081 | 41.6523 µg/g and 45.1024 µg/g and 60.4329 µg/g and 68.0864 µg/g | 19.7151 and 33.3577 and 43.2157 and 32.1745 and 46.8072 and 36.2576 and 32.4176 and 40.5144 and 34.2074 and 37.9228 | 4 and 4.278 and 4.083 and 3.889 and 4.367 and 4.595 and 4.611 and 4.667 | 65.946 % Lesion and 80.0675 % Lesion and 77.46 % Lesion and 69.3112 % Lesion and 58.965 % Lesion and 57.8207 % Lesion and 65.2988 % Lesion | 195963 um2 and 152245 um2 and 221322 um2 and 227819 um2 and 178448 um2 and 177016 um2 and 268099 um2 | 12.0227 % Lesion and 7.77 % Lesion and 10.3458 % Lesion and 13.4964 % Lesion and 17.8935 % Lesion and 30.3544 % Lesion and 12.0651 % Lesion | 36578.9 um2 and 15233.4 um2 and 30544.5 um2 and 45695.4 um2 and 53110.1 um2 and 102496 um2 and 50318.2 um2 | 21.7224 % Lesion and 11.9211 % Lesion and 11.8215 % Lesion and 16.7081 % Lesion and 22.5501 % Lesion and 9.461 % Lesion and 22.3112 % Lesion | 64440.8 um2 and 22667.5 um2 and 33872.5 um2 and 54918.5 um2 and 69955.9 um2 and 28166.5 um2 and 89527.4 um2 | significantly suppressed | 0.9947 and 1.813 and 1.671 and 2.327 and 1.487 and 1.248 and 0.7546 and 0.5275 and 1.539 and 2.451 | NFkB OD ([1]; 0.45 mM 24 h): 0.161 and 0.132 and 0.164 and 0.174 and 0.222 and 0.147; free butyrate, Colon Contents [2, 6]: 384.57 µg/g
2 | CCCC(=O)OC[C@H](N)C(=O)O [SerBut, O-butyryl-L-serine] | 0.215 and 0.212 and 0.201 and 0.244 and 0.265 and 0.185 | 0.151 and 0.171 and 0.176 and 0.19 and 0.152 | 61.2227 µg/g and 52.7128 µg/g and 33.2508 µg/g and 35.0221 µg/g | 21.0027 and 29.8005 and 22.5256 and 19.8678 and 31.4493 and 14.4105 and 13.3736 and 26.8175 and 18.8593 and 30.307 and 36.2089 and 15.3228 and 16.4207 and 38.8939 and 24.9469 and 30.9724 and 19.1725 | 4.31 and 4.429 and 3.833 and 3.944 and 4.333 and 4 and 3.75 and 3.583 | 69.8799 % Lesion and 66.2246 % Lesion and 57.396 % Lesion and 61.0623 % Lesion and 37.3547 % Lesion and 58.9062 % Lesion and 54.5852 % Lesion | 83533.6 um2 and 151477 um2 and 57839.2 um2 and 114375 um2 and 26376.1 um2 and 132530 um2 and 122451 um2 | 20.6972 % Lesion and 12.9871 % Lesion and 31.9636 % Lesion and 8.967 % Lesion and 42.8946 % Lesion and 25.2201 % Lesion and 37.0252 % Lesion | 25307.3 um2 and 13303.3 um2 and 35976.1 um2 and 33683.8 um2 and 30916.8 um2 and 58237.6 um2 and 82003.5 um2 | 8.949 % Lesion and 20.1213 % Lesion and 8.471 % Lesion and 28.3702 % Lesion and 18.86 % Lesion and 14.738 % Lesion and 7.7245 % Lesion | 10697.9 um2 and 47552.4 um2 and 8399.84 um2 and 53169.3 um2 and 13317 um2 and 32727 um2 and 17678.5 um2 | significantly suppressed | 1.543 and 1.468 and 1.422 and 1.743 and 2.24 and 1.846 and 1.092 and 1.104 and 0.9748 | NFkB OD ([1]; 12 mM 24 h): 0.101 and 0.118 and 0.1 and 0.099 and 0.117 and 0.087; LPS-induced NF-κB activation ([1]; 12 mM, comparable to 1.3 mM NaBut): significantly suppressed LPS-induced NF-κB activation; butyrate in the colon tissue ([2]; C57BL/6, normal diet): no increase; free butyrate in the intestinal contents ([2]; C57BL/6, normal diet): no significant changes; free butyrate in upper and lower small intestine and ileum tissue ([2]; compared with both PBS- and NaBut-treated mice): significantly more free, active butyrate; Oil Red O–stained plaque area in the aortic root ([3]; 6 weeks, 150 mM in drinking water, HFD, compared with both control and NaBut-treated groups): significantly less; plaque severity score, CD68^+ stained area and necrotic core area ([4]; 6 weeks, compared with water-treated mice): significant reduction
